The subject of series [1] is HCC827 cells. The series can be described thus: Drug resistance assay (time to develop resistance, cell viability by cell counting). It counts as cell-based, human.
The test system of series [2] is HCC827 cells grafted into mice. Kind of series: Tumor growth in HCC827-grafted mice. It counts as in vivo. An excerpt: To model human EGFR mutated NSCLC, HCC827 cells were grafted into mice.
HCC827 or AZD9291-resistant HCC827 cancer or PC9 NSCLC cells (5×10^6) were subcutaneously injected into NOD/SCID mice (2 months old, n=6-10 for each group). […] The tumor volume was monitored twice a week for 4-8 weeks. All protocols involving animals were approved by the Research Animal Care Committee of City of Hope, in compliance with the Public Health Service Policy of the United States.

Series [3] is described as follows: Adverse effect observed in treated PC9-grafted mice. It counts as in vivo. The conditions noted are these: Velcade treatment. An excerpt: (§1) A separate experiment was completed using PC9-grafted mice in the same treatment setting as previously described.
For series [4], the system named is HCC827-grafted mice. Kind of series: Survival rates of HCC827-grafted mice. The class given is in vivo. The arrangement: dose or concentration left out as unconfirmed. The conditions noted are these: Tagrisso with or without co-administered Velcade (FIG. 3).
Series [5] deals with HSP72. Kind of series: HSP72 protein level in Tagrisso-treated HCC827 cells. It counts as cell-based, human. An excerpt: The inventors sought to maintain high levels of HSP72 while sustaining cancer treatment with TKIs.
Series [6] deals with PC9 tumors. The series can be described thus: Tumor growth in PC9-grafted mice (Velcade study). It counts as in vivo. The conditions noted are these: same treatment setting as HCC827 study. Here is the method: as §1
(§2) HCC827 or AZD9291-resistant HCC827 cancer or PC9 NSCLC cells (5×10^6) were subcutaneously injected into NOD/SCID mice (2 months old, n=6-10 for each group). After tumor size reaches approximately 100 mm^3, the mice were administered AZD9291 individually or in combination with triptolide using ALZET osmotic pump, which was implanted under the skin of the mice for a specific time period. The tumor volume was monitored twice a week for 4-8 weeks. All protocols involving animals were approved by the Research Animal Care Committee of City of Hope, in compliance with the Public Health Service Policy of the United States.

Series [7] concerns EGFR-TKI resistant HCC827 lung cancer cells. The series can be described thus: Tumor growth of Tagrisso-resistant HCC827 cells grafted in mice. The class given is in vivo. Here is the method:
as §2

Series [8] concerns PC9 tumor. The series can be described thus: PC9 tumor growth in grafted mice following Tagrisso resistance development. As to conditions: for tumor volume relative to its volume prior to the treatment (100%): PC9-grafted mice after 4 weeks Tagrisso, Tagrisso 2x dosage (Group 1), combination (Group 3). It counts as in vivo. Here is the method:
as §2

The test system of series [9] is HSP72. Kind of series: HSP72 cellular expression. The class given is cell-based. The source says:
Triptolide by itself is a potent anti-tumor agent and functions by activating tumor suppressor protein p53 and blocking tumor promotor NF-κB.

Setting [10] is: HCC827-grafted mice, compared to untreated control (FIG. 2), Tagrisso at dose corresponding to recommended human dose, low dose of Velcade.

SMILES strings stand for the structures.

On to `C#Cc1cccc(Nc2ncnc3cc(OCCOC)c(OCCOC)cc23)c1` [Tarceva, Erlotinib], for which, in series [1] (Tarceva alone), the “time for HCC827 cells to develop resistance to Tarceva” value is “about 30 days”.

In the case of `CC(C)C[C@H](NC(=O)[C@H](Cc1ccccc1)NC(=O)c1cnccn1)B(O)O` [Velcade, Bortezomib], in series [2] (setting [10]), the tumor growth entry is recorded as “moderately inhibited tumor growth”. Besides, in series [3], the adverse effect result is “skin inflammation after one month”. For the same compound, the “survival of the mice” value in series [4] is listed as “did not improve survival of the mice”. Further, the HSP72 protein levels result in [5] was “effectively maintains high levels of HSP72 protein”. Besides, the PC9 tumor growth result in series [6] is reported as “little inhibitory effect on PC9 tumor growth”. For the same compound, the “time HCC827 cells remained sensitive to Tagrisso” value in series [1] (Tagrisso in the presence of Velcade, same concentration) is over 60 days.

As to `CC(C)[C@]12O[C@H]1[C@@H]1O[C@]13[C@]1(O[C@H]1C[C@H]1C4=C(CC[C@@]13C)C(=O)OC4)[C@@H]2O` [Triptolide], the “sensitization of Tagrisso-resistant HCC827 to the EGFR-TKI” value in series [7] (Tagrisso in the absence or presence of Triptolide (FIG. 5B)) is listed as “sensitizes Tagrisso-resistant HCC827 cells to the EGFR-TKI”. For the same compound, the “tumor volume relative to its volume prior to the treatment (100%)” value in series [8] (Triptolide (Group 2)) came to 60%. Further, the “duration of inhibitory effect on PC9 tumor growth” value in series [8] (after 4 weeks Tagrisso pre-treatment, Tagrisso at 2x dosage (Group 1), Triptolide (Group 2)) is listed as “at least 4 weeks”. The HSP72 cellular expression result in series [9] is recorded as “may activate HSP72 cellular expression”. Also, the “time HCC827 cells maintained sensitivity to Tagrisso” value in series [1] (Tagrisso in the presence of Triptolide, 70 day duration of the study) is over 70 days. Moreover, in series [1] (Tarceva when also treated with Triptolide, 70 day duration of the study), the “time HCC827 cells maintained sensitivity to Tarceva (resistance not observed)” value is over 70 days.

Turning to `C=CC(=O)Nc1cc(Nc2nccc(-c3cn(C)c4ccccc34)n2)c(OC)cc1N(C)CCN(C)C` [Tagrisso, Osimertinib], the tumor growth result in [2] (setting [10]) is “reduced tumor size and blocked tumor growth”; in series [2] (non-resistant HCC827 cells (FIG. 5A)), “tumor growth is inhibited”; in series [7] (Tagrisso-resistant HCC827 grafted mice (FIG. 5A, 5B)), “does not reduce tumor growth”. In addition, in series [8] (Triptolide (Group 2)), the “tumor volume relative to its volume prior to the treatment (100%)” value is reported as 190%. The “treatment time at which Tagrisso began to lose its inhibitory effect on the PC9 tumor” value in [8] (PC9-grafted mice, initial Tagrisso dosage) came to 4 weeks.
